Source: PubChem BioAssay AID2060603 (Molecular Pharmacology Branch, DTP, NCI, 2025)
“And” between values parts separate entries of the source, which are not always exact repeats. Equal entries are not always repeated.

Test system: 422866-222-R5-J1-PDC spheroid viability
Assay: Anticancer human tumor 422866-222-R5-J1-PDC patient-derived pancreatic adenocarcinoma cell line growth inhibition [CLK]
Conditions: spheroids with HUVEC and MSC; for viability, T/C: stronger effect = lower value
Method in brief: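 Patient-derived tumor cells grown as complex spheroids with HUVEC endothelial cells and mesenchymal stem cells, treated with drug combinations. Concentrations descend in half-log steps from near clinical Cmax, or from 10 microM if Cmax unknown.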

[1] = curve of first compound, second compound 0.0316 µM
[2] = curve of first compound, second compound 0.1 µM
[3] = curve of first compound, second compound 0.316 µM
[4] = curve of first compound, second compound 1 µM
[5] = curve of first compound, second compound 3.16 µM
[6] = curve of first compound, second compound 10 µM
[7] = second compound 0.0316 µM, first compound 0.00949 µM
[8] = second compound 0.0316 µM, first compound 0.03 µM
[9] = second compound 0.0316 µM, first compound 0.0949 µM
[10] = second compound 0.0316 µM, first compound 0.3 µM
[11] = second compound 0.1 µM, first compound 0.00949 µM
[12] = second compound 0.1 µM, first compound 0.03 µM
[13] = second compound 0.1 µM, first compound 0.0949 µM
[14] = second compound 0.1 µM, first compound 0.3 µM
[15] = second compound 0.316 µM, first compound 0.00949 µM
[16] = second compound 0.316 µM, first compound 0.03 µM
[17] = second compound 0.316 µM, first compound 0.0949 µM
[18] = second compound 0.316 µM, first compound 0.3 µM
[19] = second compound 1 µM, first compound 0.00949 µM
[20] = second compound 1 µM, first compound 0.03 µM
[21] = second compound 1 µM, first compound 0.0949 µM
[22] = second compound 1 µM, first compound 0.3 µM
[23] = second compound 3.16 µM, first compound 0.00949 µM
[24] = second compound 3.16 µM, first compound 0.03 µM
[25] = second compound 3.16 µM, first compound 0.0949 µM
[26] = second compound 3.16 µM, first compound 0.3 µM
[27] = second compound 10 µM, first compound 0.00949 µM
[28] = second compound 10 µM, first compound 0.03 µM
[29] = second compound 10 µM, first compound 0.0949 µM
[30] = second compound 10 µM, first compound 0.3 µM
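Also: spheroids exposed to agents for seven days before readout.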

`CC(C)CC(NC(=O)C(Cc1ccccc1)NC(=O)c1cnccn1)B(O)O` (stereo not drawn) + CN1CCN(c2cc(C(=O)Nc3cc4cc(-c5cnn(C)c5)ccc4cn3)ccn2)CC1 was tested, and the IC50 [1] was 4.7 nM, the IC50 [2] was 5.27 nM and the IC50 [3] was 4.39 nM. The IC50 [4] was under 0.949 nM, the IC50 [5] was under 0.949 nM and the IC50 [6] was under 0.949 nM. It also gave a viability, T/C (second compound 0.0316 µM, first compound 0.000949 µM) of 111%, a viability, T/C (second compound 0.0316 µM, first compound 0.003 µM) of 76.2% and a viability, T/C [7] of 8.95%. For the same compound, the viability, T/C [8] was 1.59%, the viability, T/C [9] was 0.94% and the viability, T/C [10] was 0.87%. The viability, T/C (second compound 0.1 µM, first compound 0.000949 µM) was 115%, the viability, T/C (second compound 0.1 µM, first compound 0.003 µM) was 89.7% and the viability, T/C [11] was 8.61%. The viability, T/C [12] was 1.61%, the viability, T/C [13] was 0.69% and the viability, T/C [14] was 3%. The viability, T/C (second compound 0.316 µM, first compound 0.000949 µM) was 112%, the viability, T/C (second compound 0.316 µM, first compound 0.003 µM) was 72.7% and the viability, T/C [15] was 4.02%. The viability, T/C [16] was 0.92%, the viability, T/C [17] was 0.7% and the viability, T/C [18] was 0.68%. The viability, T/C (second compound 1 µM, first compound 0.000949 µM) was 25.4%, the viability, T/C (second compound 1 µM, first compound 0.003 µM) was 4.84% and the viability, T/C [19] was 1.06%. The viability, T/C [20] was 0.61%, the viability, T/C [21] was 0.91% and the viability, T/C [22] was 2.12%. For the same compound, the viability, T/C (second compound 3.16 µM, first compound 0.000949 µM) was 9.95%, the viability, T/C (second compound 3.16 µM, first compound 0.003 µM) was 4.26% and the viability, T/C [23] was 1.32%. It also gave a viability, T/C [24] of 0.91%, a viability, T/C [25] of 1.14% and a viability, T/C [26] of 1.2%. For the same compound, the viability, T/C (second compound 10 µM, first compound 0.000949 µM) was 1.77%, the viability, T/C (second compound 10 µM, first compound 0.003 µM) was 0.99% and the viability, T/C [27] was 1.54%. The viability, T/C [28] was 0.44%, the viability, T/C [29] was 1.53% and the viability, T/C [30] was 0.46%.
In the case of `CC1(C)CCC(CN2CCN(c3ccc(C(=O)NS(=O)(=O)c4ccc(NCC5CCOCC5)c([N+](=O)[O-])c4)c(Oc4cnc5[nH]ccc5c4)c3)CC2)=C(c2ccc(Cl)cc2)C1`, the viability, T/C (compound 0.0316 µM) is reported as 89.7% and 94.5%, the viability, T/C (compound 0.1 µM) is reported as 95.6% and 97.1% and the viability, T/C (compound 0.316 µM) is reported as 103% and 77.2%. For the same compound, the viability, T/C (compound 1 µM) was 105% and 92.1%, the viability, T/C (compound 3.16 µM) was 99.1% and 120% and the viability, T/C (compound 10 µM) was 69.8% and 69%. It also gave an IC50 (curve of compound) of over 10000 nM.
In the case of `COc1ccc([C@@H](O)c2cc(-c3ncnc4cc(N5CCOCC5)ccc34)c(F)cc2Cl)nn1`, the viability, T/C (compound 0.0316 µM) is reported as 88.1% and 94.1%, the viability, T/C (compound 0.1 µM) is reported as 105% and 99% and the viability, T/C (compound 0.316 µM) is reported as 80.7% and 76.8%. The viability, T/C (compound 1 µM) was 66.4% and 61.3%, the viability, T/C (compound 3.16 µM) was 47.2% and 38.6% and the viability, T/C (compound 10 µM) was 35.5% and 29.1%. The IC50 (curve of compound) was 2500 nM and 1710 nM.
`NC(=O)C(=Cn1cnc(-c2cc(C(F)(F)F)cc(C(F)(F)F)c2)n1)c1cncnc1` + CN1CCN(c2cc(C(=O)Nc3cc4cc(-c5cnn(C)c5)ccc4cn3)ccn2)CC1 gave an IC50 [1] of over 3000 nM, an IC50 [2] of over 3000 nM and an IC50 [3] of 55.8 nM. The IC50 [4] was under 9.49 nM, the IC50 [5] was under 9.49 nM and the IC50 [6] was under 9.49 nM. It also gave a viability, T/C [7] of 123%, a viability, T/C [8] of 117% and a viability, T/C [9] of 80%. The viability, T/C [10] was 48.4%, the viability, T/C (second compound 0.0316 µM, first compound 0.949 µM) was 66.3% and the viability, T/C (second compound 0.0316 µM, first compound 3 µM) was 78.4%. The viability, T/C [11] was 110%, the viability, T/C [12] was 94.6% and the viability, T/C [13] was 73.8%. For the same compound, the viability, T/C [14] was 32.1%, the viability, T/C (second compound 0.1 µM, first compound 0.949 µM) was 55.6% and the viability, T/C (second compound 0.1 µM, first compound 3 µM) was 67.4%. For the same compound, the viability, T/C [15] was 66.5%, the viability, T/C [16] was 63.8% and the viability, T/C [17] was 38.2%. For the same compound, the viability, T/C [18] was 21.9%, the viability, T/C (second compound 0.316 µM, first compound 0.949 µM) was 21% and the viability, T/C (second compound 0.316 µM, first compound 3 µM) was 20.9%. For the same compound, the viability, T/C [19] was 15.6%, the viability, T/C [20] was 14.2% and the viability, T/C [21] was 15.1%. The viability, T/C [22] was 22.4%, the viability, T/C (second compound 1 µM, first compound 0.949 µM) was 22.9% and the viability, T/C (second compound 1 µM, first compound 3 µM) was 14.5%. For the same compound, the viability, T/C [23] was 12.9%, the viability, T/C [24] was 15.1% and the viability, T/C [25] was 18.3%. For the same compound, the viability, T/C [26] was 18.9%, the viability, T/C (second compound 3.16 µM, first compound 0.949 µM) was 19.9% and the viability, T/C (second compound 3.16 µM, first compound 3 µM) was 18.5%. It also gave a viability, T/C [27] of 2.84%, a viability, T/C [28] of 1.47% and a viability, T/C [29] of 2.11%. The viability, T/C [30] was 1.91%, the viability, T/C (second compound 10 µM, first compound 0.949 µM) was 6.33% and the viability, T/C (second compound 10 µM, first compound 3 µM) was 9.39%.
